In patent publication US9932331B2, “Phenyl tetrahydroisoquinoline compound substituted with heteroaryl” (TAISHO PHARMACEUTICAL CO., LTD, priority 2014, dated 2018):
Where a name gives a salt, the structure may show the parent alone.

Biological target: T1, human NHE3 (Homo sapiens, UniProt P48764)
T1 sequence (P48764 26-834): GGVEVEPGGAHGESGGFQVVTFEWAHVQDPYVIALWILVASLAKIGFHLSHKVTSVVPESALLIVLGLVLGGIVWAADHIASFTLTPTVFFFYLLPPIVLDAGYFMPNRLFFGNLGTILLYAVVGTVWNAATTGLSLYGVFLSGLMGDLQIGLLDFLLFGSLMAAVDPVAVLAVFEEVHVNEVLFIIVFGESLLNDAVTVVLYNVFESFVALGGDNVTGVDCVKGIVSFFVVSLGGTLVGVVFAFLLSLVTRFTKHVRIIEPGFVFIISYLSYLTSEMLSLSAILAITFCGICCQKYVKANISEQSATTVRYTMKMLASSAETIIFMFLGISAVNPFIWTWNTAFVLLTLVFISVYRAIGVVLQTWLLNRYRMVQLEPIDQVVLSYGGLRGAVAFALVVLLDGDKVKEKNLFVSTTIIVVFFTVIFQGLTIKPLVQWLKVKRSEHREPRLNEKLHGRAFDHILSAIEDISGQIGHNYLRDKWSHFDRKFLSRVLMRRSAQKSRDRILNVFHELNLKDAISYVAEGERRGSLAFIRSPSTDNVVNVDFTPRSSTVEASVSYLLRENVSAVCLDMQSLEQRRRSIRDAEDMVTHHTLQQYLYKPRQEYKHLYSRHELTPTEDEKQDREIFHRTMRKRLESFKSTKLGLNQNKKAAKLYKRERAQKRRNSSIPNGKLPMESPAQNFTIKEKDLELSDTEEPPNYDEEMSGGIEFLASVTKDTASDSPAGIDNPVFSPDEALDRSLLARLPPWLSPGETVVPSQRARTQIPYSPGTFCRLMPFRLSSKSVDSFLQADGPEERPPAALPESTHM
Experiment: NHE3 inhibition test (recovery of intracellular pH in cell line stably expressing human NHE3)
Format: cell-based
Conditions: OK cells deficient in endogenous NHE stably expressing human NHE3; BCECF fluorescence, initial rate of pH recovery; read-out: human NHE3 inhibitory activity IC50
Description: (1) Preparation of Cell Line Deficient in Endogenous NHE
The cell line deficient in endogenous NHE was prepared according to the method of Jacques Pouyssegur et al. (Proc. Natl. Acad. Sci. USA. 1984, Vol. 81, 4833-4837) using opossum kidney (OK) cells (ATCC).
(2) Preparation of Expression Plasmid and Cell Line Stably Expressing Human NHE3
The expression plasmid was constructed by inserting a human NHE3 (SLC9A3, Accession No. NM_004174) cDNA sequence (GeneCopoeia, Inc.) into a pcDNA3.2/V5-DEST vector (Life Technologies Corp.).
The OK cells deficient in endogenous NHE were transfected with the constructed human NHE3 expression plasmid to prepare stably expressing cells. The transfection was carried out by electroporation using a Nucleofector 2b device (Lonza Group Ltd.). A stably expressing cell line was selected in medium supplemented with 500 μg/mL Geneticin (Life Technologies Corp.) and isolated.
NHE3 activity measurement method using cell: The activity was determined by using the NHE3-mediated recovery of intracellular pH occurring after intracellular acidification, as an index. The intracellular pH was measured by a partial modification of the pH-sensitive fluorescent indicator method reported by Tsien et al. (Proc. Natl. Acad. Sci. USA., 1984, 81, 7436-7440).
The cell line stably expressing human NHE3 was inoculated on a poly-D-lysine-coated 96-well plate (Greiner Bio-one) and cultured overnight. […] Then, Hank's balanced salt buffer solution containing 0.25 μM BCECF-AM (Dojindo Laboratories) was added to the cells, which were then incubated at 37° C. for 30 minutes. […] The cells thus incubated in the NH4Cl buffer solution were washed with NH4Cl-free buffer solution (133.8 mM choline chloride, […], 5 mM glucose, 4.7 mM KCl, 1.25 mM CaCl2, 1.25 mM MgCl2, 0.97 mM K2HPO4, 0.23 mM KH2PO4, pH 7.4) to decrease the intracellular pH. After the washing step, 70 μL of a test compound solution prepared with the NH4Cl-free buffer solution was added to the cells, and 70 iμL of sodium ion-containing buffer solution (133.8 mM NaCl, 10 mM HEPES, 5 mM glucose, 4.7 mM KCl, 1.25 mM CaCl2, 1.25 mM MgCl2, 0.97 mM Na2HPO4, 0.23 mM NaH2PO4, pH 7.4) was added thereto in a measurement system FDSS6000 (Hamamatsu Photonics K.K.) to start the recovery of pH. The recovery of intracellular pH was monitored using BCECF fluorescence (excitation wavelength: 480 nm, fluorescence wavelength: 520 to 560 nm), and the initial rate of the pH recovery was plotted. The recovery of pH without test compound was defined as the maximum recovery, and the test compound concentration necessary to inhibit 50% of the maximum recovery was calculated as an IC50 value.

Row | IC50 | Structure (SMILES)
1 | 13.1 nM | CN1Cc2c(Cl)cc(Cl)cc2[C@H](c2cccc(-c3cn(CCOCCOCCOCCNC(=O)CN(CCN(CC(=O)NCCOCCOCCOCCn4cc(-c5cccc([C@@H]6CN(C)Cc7c(Cl)cc(Cl)cc76)c5)nn4)CC(=O)NCCOCCOCCOCCn4cc(-c5cccc([C@@H]6CN(C)Cc7c(Cl)cc(Cl)cc76)c5)nn4)CC(=O)NCCOCCOCCOCCn4cc(-c5cccc([C@@H]6CN(C)Cc7c(Cl)cc(Cl)cc76)c5)nn4)nn3)c2)C1 [Example 9-1, hydrochloride]
2 | 1080 nM | CN1Cc2c(Cl)cc(Cl)cc2[C@H](c2cccc(-c3ccc(NCCOCCOCCNC(=O)Nc4ccc(NC(=O)NCCOCCOCCNc5ccc(-c6cccc([C@@H]7CN(C)Cc8c(Cl)cc(Cl)cc87)c6)cn5)cc4)nc3)c2)C1 [Example 7-8, 1,1′-Benzene-1,4-diylbis{3-[2-(2-{2-[(5-{3-[(4S)-6,8-dichloro-2-methyl-1,2,3,4-tetrahydroisoquinolin-4-yl]phenyl}pyridin-2-yl)amino]ethoxy}ethoxy)ethyl]urea}]
3 | 2.1 nM | CN1Cc2c(Cl)cc(Cl)cc2[C@H](c2cccc(-c3cn(CCOCCOCCOCCNC(=O)NCCNC(=O)NCCNC(=O)NCCOCCOCCOCCn4cc(-c5cccc([C@@H]6CN(C)Cc7c(Cl)cc(Cl)cc76)c5)nn4)nn3)c2)C1 [Example 6-13, 1,1′-[Carbonylbis(iminoethane-2,1-diyl)]bis {3-[2-(2-{2-[2-(4-{3-[(4S)-6,8-dichloro-2-methyl-1,2,3,4-tetrahydroisoquinolin-4-yl]phenyl}-1H-1,2,3-triazol-1-yl)ethoxy]ethoxy}ethoxy)ethyl]urea}hydrochloride]
4 | 115 nM | CN1Cc2c(Cl)cc(Cl)cc2[C@H](c2cccc(-c3ccc(NCCOCCOCCNC(=O)c4ccccc4C(=O)NCCOCCOCCNc4ccc(-c5cccc([C@@H]6CN(C)Cc7c(Cl)cc(Cl)cc76)c5)cn4)nc3)c2)C1 [Example 8-4, N,N′-Bis[2-(2-{2-[(5-{3-[(4S)-6,8-dichloro-2-methyl-1,2,3,4-tetrahydroisoquinolin-4-yl]phenyl}pyridin-2-yl)amino]ethoxy}ethoxy)ethyl]benzene-1,2-dicarboxamide hydrochloride]
5 | 554 nM | Cc1nc(-c2cccc([C@@H]3CN(C)Cc4c(Cl)cc(Cl)cc43)c2)no1 [Example 4-1, (4S)-6,8-Dichloro-2-methyl-4-[3-(5-methyl-1,2,4-oxadiazol-3-yl)phenyl]-1,2,3,4-tetrahydroisoquinoline hydrochloride]
6 | 3.2 nM | CN1Cc2c(Cl)cc(Cl)cc2[C@H](c2cccc(-c3cnc(NCCOCCOCCOCCNC(=O)[C@H](O)[C@@H](O)C(=O)NCCOCCOCCOCCNc4ncc(-c5cccc([C@@H]6CN(C)Cc7c(Cl)cc(Cl)cc76)c5)cn4)nc3)c2)C1 [Example 8-21, (2R,3R)-N,N′-Bis{2-[2-(2-{2-[(5-{3-[(4S)-6,8-dichloro-2-methyl-1,2,3,4-tetrahydroisoquinolin-4-yl]phenyl}pyrimidin-2-yl)amino]ethoxy}ethoxy)ethoxy]ethyl}-2,3-dihydroxybutanediamide formate]
7 | 5.5 nM | CN1Cc2c(Cl)cc(Cl)cc2[C@H](c2cccc(-c3nnc(CCOCCOCCNC(=O)NCCCCNC(=O)NCCOCCOCCc4nnc(-c5cccc([C@@H]6CN(C)Cc7c(Cl)cc(Cl)cc76)c5)o4)o3)c2)C1 [Example 7-23, 1,1′-Butane-1,4-diylbis[3-(2-{2-[2-(5-{3-[(4S)-6,8-dichloro-2-methyl-1,2,3,4-tetrahydroisoquinolin-4-yl]phenyl}-1,3,4-oxadiazol-2-yl)ethoxy]ethoxy}ethyl)urea]tetraformate]
8 | 3.2 nM | CN1Cc2c(Cl)cc(Cl)cc2[C@H](c2cccc(-c3cc(NCCOCCOCCOCCNC(=O)[C@H](O)[C@@H](O)C(=O)NCCOCCOCCOCCNc4cc(-c5cccc([C@@H]6CN(C)Cc7c(Cl)cc(Cl)cc76)c5)ncn4)ncn3)c2)C1 [Example 8-10, (2R,3R)-N,N′-Bis{2-[2-(2-{2-[(6-{3-[(4S)-6,8-dichloro-2-methyl-1,2,3,4-tetrahydroisoquinolin-4-yl]phenyl}pyrimidin-4-yl)amino]ethoxy}ethoxy)ethoxy]ethyl}-2,3-dihydroxybutanediamide hydrochloride]
